Our source for the GI50 and IC50 values is patent US20250388605A1, “HETEROBIFUNCTIONAL COMPOUNDS AND METHODS OF TREATING DISEASE” (Halda Therapeutics OpCo, Inc., priority 2022, published 2025).

A value given as a limit tells only on which side of the number the result lay.

The term GI50 denotes the concentration that inhibits growth by half. The low end stands for greater sensitivity of the cells, the high end for lower sensitivity of the cells. The term IC50 denotes the concentration at which inhibition is half-maximal. Higher therefore signals lower potency.

The test system of experiment [1] is T-Rex 293 cell line SC cells having increased expression of progesterone receptor isoform B protein. In words: Cellular growth inhibition assay, T-Rex 293 SC cells exposed to doxycycline (increased progesterone receptor isoform B expression), CellTiter-Glo. The class given is cell-based. The following applies: T-Rex 293 SC cells with 10 ng/mL doxycycline (increased PR isoform B), 72 hours. As to the method: The SC cells were seeded on poly-D-lysine coated, black clear-bottom 384-well plates at 2500/well, in 25 μL Phenol Red Free Dulbecco's Modified Eagle Medium (DMEM) supplemented with 10% w/w charcoal-dextran treated fetal bovine serum (FBS) and 1% w/w pen-strep, with or without 10 ng/mL doxycycline. Pen-Strep is a commercially available mixture of penicillin G and streptomycin, which is used in mammalian cell culture media to prevent bacterial contamination. Phenol Red Free Dulbecco's Modified Eagle Medium (DMEM) supplemented with 10% w/w charcoal-dextran treated fetal bovine serum (FBS) and 1% w/w pen-strep, with or without 10 ng/mL doxycycline is herein referred to as Treatment Medium. Following seeding of cells in the plates, the plates were spun at 300×g for 30 seconds, then equilibrated to room temperature for 30 minutes, and then deposited in a humidified tissue culture incubator maintained at 37° C. with 5% CO2.
At 24 hours after seeding of the cells, dilutions of test compound were prepared in DMSO and dissolved in Treatment Medium, to achieve a final DMSO concentration of 0.5% w/w, thereby providing the Test Compound Solution. A 25 μL aliquot of the Test Compound Solution was added to cells in the well plates. An equal volume of a solution containing DMSO and Treatment Medium was used as a negative control. Following treatment of cells with Test Compound Solution or said equal volume of a solution containing DMSO and Treatment Medium, the plates were spun at 300×g for 30 seconds, and then left in an incubator for 72 hours.
At the end of the treatment duration, cell viability was quantified with CellTiter-Glo 2.0 reagent (Promega Cat #G9243). For this purpose, plates were equilibrated to room temperature for 30 minutes, and then 25 μL of CellTiter-Glo 2.0 reagent was added to cells in the plate wells. Plates were then agitated on a shaker for two minutes at 500 rpm and subsequently incubated at room temperature for 10 minutes. Following incubation, the plates were spun at 3000×g for 30 seconds, then sealed with an optical adhesive cover, and luminescence readings were measured with an EnVision Plate Reader (Perkin Elmer).
Data was normalized using zero luminescence for baseline. A four-parameter non-linear regression curve fit was applied to dose-response data in GraphPad Prism data analysis software to determine the half-maximal growth inhibitory concentration (GI50) for each test compound.
A general note: Cellular ATP, detected with luciferase, serves as a proxy for viable cell number.

Experiment [2] addresses T1, progesterone receptor ligand binding domain (GST-tagged PR LBD) (Homo sapiens, UniProt P06401).
T1 construct: purchased Life Technologies A15905 or a15906
T1 sequence (P06401 679-913 limits assumed): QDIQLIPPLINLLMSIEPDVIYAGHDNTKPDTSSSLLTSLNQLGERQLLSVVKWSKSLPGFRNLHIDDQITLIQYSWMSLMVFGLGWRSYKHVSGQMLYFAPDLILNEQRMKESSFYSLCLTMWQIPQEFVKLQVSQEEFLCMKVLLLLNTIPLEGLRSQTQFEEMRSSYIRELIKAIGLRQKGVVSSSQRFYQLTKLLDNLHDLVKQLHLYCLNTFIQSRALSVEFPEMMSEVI
In words: FP Assay for Binding Affinity to Progesterone Receptor (PolarScreen Progesterone Receptor Competitor Assay Kit). The conditions noted are these: fluorescence polarization, Fluormone tracer, 2 hours at room temperature. As to the method: Exemplary compounds were tested for ability to bind to the progesterone receptor ligand binding domain (LBD).
Compounds were tested using the PolarScreen™ Progesterone Receptor Competitor Assay Kit (Life Technologies Cat #A15905 or a15906), as per the manufacturer's instructions. Briefly, GST-tagged PR LBD, Fluormone tracer, and compound were mixed and incubated for 2 hours at room temperature in the dark. Following incubation, the plates were spun at 3000×g for 30 seconds, then sealed with an optical adhesive cover, and fluorescence polarization was measured using appropriate excitation and emission filters with an EnVision Plate Reader (Perkin Elmer). Compound concentration vs. mP value were plotted in Prism (GraphPad). A four-parameter non-linear regression curve fit was applied to dose-response data to determine the half-maximal inhibitory concentration (IC50) for each test compound.
A general note: Polarisation of emitted light reports the rotation of a fluorescent probe.

Regarding `CCS(=O)(=O)Nc1ccc(Oc2cccc(OCCOC3CCN(c4ncc(C(=O)N[C@H]5C(C)(C)[C@H](Oc6ccc(C#N)c(Cl)c6)C5(C)C)cn4)CC3)c2)c(-c2cn(C)c(=O)c3[nH]ccc23)c1` [Compound I-6], the GI50 in experiment [1] is less than 500 nM.

Regarding `CCS(=O)(=O)Nc1ccc(Oc2cccc(OCCOCCOCCOC3CCN(c4ncc(C(=O)N[C@H]5C(C)(C)[C@H](Oc6ccc(C#N)c(Cl)c6)C5(C)C)cn4)CC3)c2)c(-c2cn(C)c(=O)c3[nH]ccc23)c1` [Compound I-7], in experiment [1], the GI50 is less than 500 nM.

Turning to `CCS(=O)(=O)Nc1ccc(Oc2cccc(N3CC4(CN(CC5CCN(c6ncc(C(=O)N[C@H]7C(C)(C)[C@H](Oc8ccc(C#N)c(Cl)c8)C7(C)C)cn6)CC5)C4)C3)c2)c(-c2cn(C)c(=O)c3[nH]ccc23)c1` [Compound I-35, N-((1r, 3r)-3-(3-chloro-4-cyanophenoxy)-2,2,4,4-tetramethylcyclobutyl)-2-(4-((6-(3-(4-(ethylsulfonamido)-2-(6-methyl-7-oxo-6,7-dihydro-1H-pyrrolo[2,3-c]pyridin-4-yl)phenoxy)phenyl)-2,6-diazaspiro[3.3]heptan-2-yl)methyl)piperidin-1-yl)pyrimidine-5-carboxamide], the concentration for 50% growth inhibition (GI50) in experiment [1] was less than 500 nM. Moreover, in experiment [2], the IC50 lay in the range of 500 to 2500 nM.

Compound `CCS(=O)(=O)Nc1ccc(Oc2cccc(OC3CCC4(CC3)CCN(c3ncc(C(=O)N[C@H]5C(C)(C)[C@H](Oc6ccc(C#N)c(Cl)c6)C5(C)C)cn3)CC4)c2)c(-c2cn(C)c(=O)c3[nH]ccc23)c1` [Compound I-45] registered a GI50 in experiment [1] of less than 500 nM. This compound also returned an IC50 in experiment [2] greater than 2500 nM.

Turning to `CCS(=O)(=O)Nc1ccc(Oc2ccc(F)c(OCCOC3CCN(c4ncc(C(=O)N[C@H]5C(C)(C)[C@H](Oc6ccc(C#N)c(Cl)c6)C5(C)C)cn4)CC3)c2F)c(-c2cn(C)c(=O)c3[nH]ccc23)c1` [Compound I-65], in experiment [1], the GI50 is less than 500 nM.

Regarding `CCS(=O)(=O)Nc1ccc(Oc2cccc(N3CC(OC4CCN(c5ncc(C(=O)N[C@H]6C(C)(C)[C@H](Oc7ccc(C#N)c(Cl)c7)C6(C)C)cn5)CC4)C3)c2)c(-c2cn(C)c(=O)c3[nH]ccc23)c1` [Compound I-80], the IC50 in experiment [2] is greater than 2500 nM.

`Cn1cc(-c2cc(C(C)(C)O)ccc2Oc2cccc(N3CC(N4CCN(c5ncc(C(=O)N[C@H]6C(C)(C)[C@H](Oc7ccc(C#N)c(Cl)c7)C6(C)C)cn5)CC4)C3)c2F)c2cc[nH]c2c1=O` [Compound I-92, N-((1r, 3r)-3-(3-chloro-4-cyanophenoxy)-2,2,4,4-tetramethylcyclobutyl)-2-(4-(1-(2-fluoro-3-(4-(2-hydroxypropan-2-yl)-2-(6-methyl-7-oxo-6,7-dihydro-1H-pyrrolo[2,3-c]pyridin-4-yl)phenoxy)phenyl)azetidin-3-yl)piperazin-1-yl)pyrimidine-5-carboxamide] registered a GI50 in experiment [1] of less than 500 nM.

With `CCS(=O)(=O)Nc1ccc(Oc2cccc(OC3CC(C4CCN(c5ncc(C(=O)N[C@H]6C(C)(C)[C@H](Oc7ccc(C#N)c(Cl)c7)C6(C)C)cn5)CC4)C3)c2)c(-c2cn(C)c(=O)c3[nH]ccc23)c1` (some centres unmarked) [Compound I-104], the GI50 in experiment [1] was less than 500 nM. In addition, in experiment [2], the IC50 was greater than 2500 nM.

`Cn1cc(-c2cc(C(C)(C)O)ccc2Oc2cccc(N3CC(OC4CCN(c5ncc(C(=O)N[C@H]6C(C)(C)[C@H](Oc7ccc(C#N)c(Cl)c7)C6(C)C)cn5)CC4)C3)c2F)c2cc[nH]c2c1=O` [Compound I-190] showed a GI50 in experiment [1] of less than 500 nM.

With `Cc1ccc(CCCOC2CCN(c3ncc(C(=O)N[C@H]4C(C)(C)[C@H](Oc5ccc(C#N)c(Cl)c5)C4(C)C)cn3)CC2)c(C)c1Oc1ccc(C(C)(C)O)cc1-c1cn(C)c(=O)c2[nH]ccc12` [Compound I-195], the GI50 in experiment [1] was less than 500 nM.

Take `Cn1cc(-c2cc(C(C)(C)O)ccc2Oc2cccc(N3CC(CC4CCN(c5ncc(C(=O)N[C@H]6C(C)(C)[C@H](Oc7ccc(C#N)c(Cl)c7)C6(C)C)cn5)CC4)C3)c2F)c2cc[nH]c2c1=O` [Compound I-196]: the GI50 in experiment [1] is less than 500 nM.

The compound `CN(c1ccc(Oc2ccc(C(C)(C)O)cc2-c2cn(C)c(=O)c3[nH]ccc23)cc1)C1CCN(c2ncc(C(=O)N[C@H]3C(C)(C)[C@H](Oc4ccc(C#N)c(Cl)c4)C3(C)C)cn2)CC1` [Compound I-197] showed a GI50 in experiment [1] of less than 500 nM.

`Cn1cc(-c2cc(C(C)(C)O)ccc2Oc2ccc(CC3CCN(c4ncc(C(=O)N[C@H]5C(C)(C)[C@H](Oc6ccc(C#N)c(Cl)c6)C5(C)C)cn4)CC3)cc2)c2cc[nH]c2c1=O` [Compound I-201]: in experiment [1], the GI50 was less than 500 nM. Also, the IC50 in experiment [2] was greater than 2500 nM.

Consider `Cn1cc(-c2cc(C(C)(C)O)ccc2Oc2ccc(OCC3CCN(c4ncc(C(=O)N[C@H]5C(C)(C)[C@H](Oc6ccc(C#N)c(Cl)c6)C5(C)C)cn4)CC3)cc2)c2cc[nH]c2c1=O` [Compound I-202], for which the GI50 in experiment [1] was less than 500 nM. This compound also yielded an IC50 in experiment [2] greater than 2500 nM.

`Cn1cc(-c2cc(C(C)(C)O)ccc2Oc2ccc(OCCN3CCN(c4ncc(C(=O)N[C@H]5C(C)(C)[C@H](Oc6ccc(C#N)c(Cl)c6)C5(C)C)cn4)CC3)cc2)c2cc[nH]c2c1=O` [Compound I-204] came in with a GI50 in experiment [1] of less than 500 nM. Further, the half-maximal inhibitory concentration (IC50) in experiment [2] is 50 to 500 nM.

Turning to `CN(C1CCN(c2ncc(C(=O)N[C@H]3C(C)(C)[C@H](Oc4ccc(C#N)c(Cl)c4)C3(C)C)cn2)CC1)C1CN(c2ccc(Oc3ccc(C(C)(C)O)cc3-c3cn(C)c(=O)c4[nH]ccc34)cc2)C1` [Compound I-208], the GI50 in experiment [1] was less than 500 nM. In addition, in experiment [2], the half-maximal inhibitory concentration (IC50) was in the range of 50 to 500 nM.

Take `CC(C)N(CC1CCN(c2ncc(C(=O)N[C@H]3C(C)(C)[C@H](Oc4ccc(C#N)c(Cl)c4)C3(C)C)cn2)CC1)[C@H]1C[C@H](Oc2cccc(Oc3ccc(C(C)(C)O)cc3-c3cn(C)c(=O)c4[nH]ccc34)c2F)C1` [Compound I-214]: the IC50 in experiment [2] is less than 50 nM.

In turn, `Cn1cc(-c2cc(C(C)(C)O)ccc2Oc2ccc(N3CC(OC4CCN(c5ncc(C(=O)N[C@H]6C(C)(C)[C@H](Oc7ccc(C#N)c(Cl)c7)C6(C)C)cn5)CC4)C3)cc2)c2cc[nH]c2c1=O` [Compound I-219] yielded a GI50 in experiment [1] of less than 500 nM. In experiment [2], the IC50 was in the range of 50 to 500 nM.

Turning to `CCS(=O)(=O)c1ccc(Oc2ccc(OCC3CCN(c4ncc5c(n4)CN([C@H]4C(C)(C)[C@H](Cc6ccc(C#N)c(Cl)c6)C4(C)C)C5=O)CC3)cc2)c(-c2cn(C)c(=O)c3[nH]ccc23)c1` [Compound I-220], in experiment [1], the concentration for 50% growth inhibition (GI50) was less than 500 nM. The same compound had an IC50 in experiment [2] of 50 to 500 nM.

With `CC(C)N(C1CCN(c2ncc(C(=O)N[C@H]3C(C)(C)[C@H](Oc4ccc(C#N)c(Cl)c4)C3(C)C)cn2)CC1)C1CN(c2cccc(Oc3ccc(C(C)(C)O)cc3-c3cn(C)c(=O)c4[nH]ccc34)c2F)C1` [Compound I-221], the GI50 in experiment [1] was less than 500 nM. Moreover, the IC50 in experiment [2] was 50 to 500 nM.

`Cn1cc(-c2cc(C(C)(C)O)ccc2Oc2ccc(N3CC(CN4CC5CC4CN5c4ncc(C(=O)N[C@H]5C(C)(C)[C@H](Oc6ccc(C#N)c(Cl)c6)C5(C)C)cn4)C3)cc2)c2cc[nH]c2c1=O` (some centres unmarked) [Compound I-228] had a GI50 in experiment [1] of less than 500 nM. Also, the IC50 in experiment [2] is 50 to 500 nM.

`CN(C1CN(c2ccc(Oc3ccc(C(C)(C)O)cc3-c3cn(C)c(=O)c4[nH]ccc34)cc2)C1)C1CN(c2ncc(C(=O)N[C@H]3C(C)(C)[C@H](Oc4ccc(C#N)c(Cl)c4)C3(C)C)cn2)C1` [Compound I-238] came in with a GI50 in experiment [1] of less than 500 nM. In experiment [2], this compound had an IC50 of 50 to 500 nM.

Take `CN(CC1CCN(c2ncc(C(=O)N[C@H]3C(C)(C)[C@H](Oc4ccc(C#N)c(Cl)c4)C3(C)C)cn2)CC1)C1(c2ccc(Oc3ccc(C(C)(C)O)cc3-c3cn(C)c(=O)c4[nH]ccc34)cc2)COC1` [Compound I-255]: the GI50 in experiment [1] was less than 500 nM. This compound yielded an IC50 in experiment [2] of 50 to 500 nM.

In experiment [1], `Cn1cc(-c2cc(C(C)(C)O)ccc2Oc2ccc(CCCC3CC4(C3)CN(c3ncc(C(=O)N[C@H]5C(C)(C)[C@H](Oc6ccc(C#N)c(Cl)c6)C5(C)C)cn3)C4)cc2)c2cc[nH]c2c1=O` [Compound I-268] gave a GI50 of less than 500 nM. For the same compound, the half-inhibitory concentration (IC50) in experiment [2] fell in the range of 50 to 500 nM.
